These results are taken from US10669283B2, “Compound and pharmacologically acceptable salt thereof” (MEIJI SEIKA PHARMA CO., LTD., priority 2016, dated 2020).

Where two headings read alike, the source gives them in different places. Bounds are passed on as bounds.

One data set deals with PDE4. Description: PDE4 inhibition, scintillation proximity assay (SPA). The data set is classed as biochemical. The procedure, abridged:
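Compound pre-diluted 1:10 in 50 mM Tris-HCl pH 7.4, 8.3 mM MgCl2, 1.7 mM EGTA, 3 mg/mL BSA, then incubated with PDE4 and [2,8-3H]-cAMP for 120 min at room temperature. Product captured on ZnSO4-containing YSi-SPA beads for 15 min; radioactivity counted against no-enzyme blank and DMSO control.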

Data set [1] can be described thus: Hepatic metabolic stability (rat liver microsome method). The data set is classed as in vitro ADME. To be noted: rat liver microsomes 0.5 mg/mL, test substance 1 μM, NADPH 1 mM, 37° C., 30 minutes. How it is done:
Metabolic stability in rat liver microsomes was evaluated by the following method. In 100 mM of potassium phosphate buffer solution (pH 7.4), liver microsomes (concentration at reaction: 0.5 mg/mL) and the test substance (concentration at reaction: 1 μM) were preincubated at 37° C. Five minutes later, 100 mM of potassium phosphate buffer (pH 7.4) solution of NADPH (concentration at reaction: 1 mM) was mixed thereto to start the reaction. After a predetermined time passed, acetonitrile was mixed to the reaction mixture to stop the reaction. Here, the reaction time was 0 and 30 minutes, and drug concentration measurement was performed for each time period using LC-MS. The % remaining value of the test compound was calculated from the value for 0 minutes and the value for 30 minutes, using the calculation formula below: % Remaining=(Value for 30 Minutes/Value for 0 Minutes)×100
The results of measuring the rat liver microsome metabolic Stability (% remaining for 30-minute reaction) for the test compound by the above method were evaluated in accordance with the following evaluated basis; A: a % remaining rate of 75% or more, B: 60% or more and less than 75%, C: 45% or more and less than 60%, and D: less than 45%.

Where [2] appears, read: scintillation proximity assay, class symbols, read-out: PDE4 Inhibitory Activity.
The mark [3] stands for this setting: scintillation proximity assay (SPA), evaluated as classes A, B, C, read-out: PDE4 Inhibitory Activity (concentration for the inhibition rate of 50%).

Turning to `O=C(N1CCOCC1)C(F)(F)Oc1ccc(-c2nccs2)c2oc(N3CC4CC(C3)N4)nc12` [Example 409, 2-((2-(3,6-diazabicyclo [3.1.1]heptan-3-yl)-7-(thiazol-2-yl)benzo[d]oxazol-4-yl)oxy)-2,2-difluoro-1-morpholino-ethan-1-one], the IC50 in the data set on PDE4 (setting [2]) is less than 100 nM. For the same compound, the “Residual ratio (% remaining for 30-minute reaction)” value in data set [1] is “B (60% or more and less than 75%)”.
As to `OCC(F)(F)Oc1ccc(-c2nccs2)c2oc(N3CC4CCC(C3)N4)nc12` [Example 404, 2-((2-(3,8-diazabicyclo [3.2.1]octan-3-yl) 7-(thiazol-2-yl)benzo[d]oxazol-4-yl)oxy)-2,2-difluoroethan-1-ol], the IC50 with PDE4 (setting [2]) is less than 100 nM. Further, the “Residual ratio (% remaining for 30-minute reaction)” value in data set [1] is “B (60% or more and less than 75%)”.
Consider `CC(C)(O)C(F)(F)Oc1ccc(-c2ncns2)c2oc(N3CC4CCC(C3)N4)nc12` [Example 327, 1-((2-(3,8-Diazabicyclo[3.2.1]octan-3-yl)-7-(1,2,4-thiadiazol-5-yl)benzo[d]oxazol-4-yl)oxy)-1,1-difluoro-2-methylpropan-2-ol], for which, in the data set on PDE4 (setting [2]), the IC50 is less than 100 nM. Moreover, the “Residual ratio (% remaining for 30-minute reaction)” value in data set [1] was “B (60% or more and less than 75%)”.
For the compound `OCC(O)C(F)(F)Oc1ccc(-c2nccs2)c2oc(N3CC4CC(C3)N4)nc12` (centres unmarked) [Example 370, 3-((2-(3,6-diazabicyclo[3.1.1]heptan-3-yl)-7-(thiazol-2-yl)benzo[d]oxazol-4-yl)oxy)-3,3-difluoropropane-1,2-diol], in the data set with PDE4 (setting [2]), the IC50 was less than 100 nM. Moreover, the “Residual ratio (% remaining for 30-minute reaction)” value in data set [1] is on record as “A (a % remaining rate of 75% or more)”.
For the compound `C[C@@H](O)COc1ccc(-c2nccs2)c2oc(N3CC4CC(C3)N4)nc12` [Example 259, (2R)-1-((2-(3,6-diazabicyclo[3.1.1]heptan-3-yl)-7-(thiazol-2-yl)benzo[d]oxazol-4-yl)oxy)propan-2-ol], in the data set with PDE4 (setting [3]), the IC50 is less than 100 nM. Also, the “Residual ratio (% remaining for 30-minute reaction)” value in data set [1] was “A (a % remaining rate of 75% or more)”.
The corresponding values for `CC(O)C(F)(F)Oc1ccc(-c2nccs2)c2oc(N3CC4CC(C3)N4)nc12` (single isomer, unassigned) [Example 251, 1-((2-(3,6-Diazabicyclo[3.1.1]heptan-3-yl)-7-(thiazol-2-yl)benzo[d]oxazol-4-yl)oxy)-1,1-difluoropropan-2-ol] are less than 100 nM and “A (a % remaining rate of 75% or more)”.
Consider `OCc1cccnc1Oc1ccc(-c2nccs2)c2oc(N3CC4CC(C3)N4)nc12` [Example 376, (2-((2-(3,6-diazabicyclo[3.1.1]heptan-3-yl)-7-(thiazol-2-yl)benzo[d]oxazol-4-yl)oxy)pyridin-3-yl)methanol], for which, in the data set on PDE4 (setting [2]), the IC50 was less than 100 nM. For the same compound, the “Residual ratio (% remaining for 30-minute reaction)” value in data set [1] is listed as “A (a % remaining rate of 75% or more)”.
For `O=S(=O)(CCO)c1ccc(-c2nccs2)c2oc(N3CC4CC(C3)N4)nc12` [Example 350, 2-((2-(3,6-diazabicyclo[3.1.1]heptan-3-yl)-7-(thiazol-2-yl)benzo [d]oxazol-4-yl)sulfonyl)ethan-1-ol], the IC50 in the data set on PDE4 (setting [2]) was less than 100 nM. Also, the “Residual ratio (% remaining for 30-minute reaction)” value in data set [1] is “A (a % remaining rate of 75% or more)”.
Consider `FC(F)(F)c1c(Cl)cc(-n2cccn2)c2oc(N3CC4CC(C3)N4)nc12` [Example 17, 2-(3,6-Diazabicyclo[3.1.1]heptan-3-yl)-5-chloro-7-(1H-pyrazol-1-yl)-4-(trifluoromethyl)benzo[d]oxazole], for which, in the data set with PDE4 (setting [3]), the IC50 is less than 100 nM. The “Residual ratio (% remaining for 30-minute reaction)” value in data set [1] is “B (60% or more and less than 75%)”.
For `CC(C)(O)C(F)(F)Oc1ccc(-n2nccn2)c2oc(N3CC4CCC(C3)N4)nc12` [Example 322, 1-((2-(3,8-Diazabicyclo[3.2.1]octan-3-yl)-7-(2H-1,2,3-triazol-2-yl)benzo[d]oxazol-4-yl)oxy)-1,1-difluoro-2-methylpropan-2-ol], the IC50 with PDE4 (setting [3]) is less than 100 nM. For the same compound, the “Residual ratio (% remaining for 30-minute reaction)” value in data set [1] is listed as “A (a % remaining rate of 75% or more)”.
As to `CC(O)(CO)C(F)(F)Oc1ccc(-c2nccs2)c2oc(N3CC4CC(C3)N4)nc12` (single isomer, unassigned) [Example 365, 3-((2-(3,6-diazabicyclo [3.1.1]heptan-3-yl)-7-(thiazol-2-yl)benzo[d]oxazol-4-yl)oxy)-3,3-difluoro-2-methylpropane-1,2-diol], the IC50 with PDE4 (setting [2]) was less than 100 nM. Moreover, the “Residual ratio (% remaining for 30-minute reaction)” value in data set [1] was “A (a % remaining rate of 75% or more)”.
In the case of `FC(F)(F)C(OCc1nnn[nH]1)c1ccc(-c2nccs2)c2oc(N3CC4CC(C3)N4)nc12` (centres unmarked) [Example 231, 4-(1-((1H-tetrazol-5-yl)methoxy)-2,2,2-trifluoroethyl)-2-(3,6-diazabicyclo[3.1.1]heptan-3-yl)-7-(thiazol-2-yl)benzo[d]oxazole], the IC50 in the data set on PDE4 (setting [3]) was less than 100 nM. Further, in data set [1], the “Residual ratio (% remaining for 30-minute reaction)” value is “A (a % remaining rate of 75% or more)”.
With `FC(F)(F)Oc1c(Cl)cc(-n2cccn2)c2oc(N3CC4CCC(C3)N4)nc12` [Example 5, 2-(3,8-Diazabicyclo[3.2.1]octan-3-yl)-5-chloro-7-(1H-pyrazol-1-yl)-4-(trifluoromethoxy)benzo[d]oxazole], in the data set with PDE4 (setting [3]), the IC50 is less than 100 nM. Besides, the “Residual ratio (% remaining for 30-minute reaction)” value in data set [1] was “B (60% or more and less than 75%)”.
`c1cnc(Oc2ccc(-c3nccs3)c3oc(N4CC5CC(C4)N5)nc23)cn1` [Example 339, 2-(3,6-diazabicyclo[3.1.1]heptan-3-yl)-4-(pyrazin-2-yloxy)-7-(thiazol-2-yl)benzo [d]oxazole]: in the data set on PDE4 (setting [2]), the IC50 is less than 100 nM. In addition, in data set [1], the “Residual ratio (% remaining for 30-minute reaction)” value is “B (60% or more and less than 75%)”.
Consider `FC(F)(F)C(OCc1nnn[nH]1)c1ccc(-c2nccs2)c2oc(N3CC4CCC(C3)N4)nc12` (centres unmarked) [Example 230, 4-(1-((1H-tetrazol-5-yl)methoxy)-2,2,2-trifluoroethyl)-2-(3,8-diazabicyclo[3.2.1]octan-3-yl)-7-(thiazol-2-yl)benzo[d]oxazole], for which the IC50 with PDE4 (setting [3]) is less than 100 nM. The “Residual ratio (% remaining for 30-minute reaction)” value in data set [1] is “A (a % remaining rate of 75% or more)”.
Take `FC(F)(F)Oc1ccc(Oc2ccc(-c3nccs3)c3oc(N4CC5CC(C4)N5)nc23)nc1` [Example 343]: the IC50 with PDE4 (setting [2]) was less than 100 nM. In addition, in data set [1], the “Residual ratio (% remaining for 30-minute reaction)” value was “B (60% or more and less than 75%)”.
On to `CC(C)(O)C(F)(F)Oc1ccc(-c2ccccn2)c2oc(N3CC4CCC(C3)N4)nc12` [Example 317, 1-((2-(3,8-Diazabicyclo[3.2.1]octan-3-yl)-7-(pyridin-2-yl)benzo[d]oxazol-4-yl)oxy)-1,1-difluoro-2-methylpropan-2-ol], for which, in the data set with PDE4 (setting [3]), the IC50 is less than 100 nM. Also, the “Residual ratio (% remaining for 30-minute reaction)” value in data set [1] is given as “A (a % remaining rate of 75% or more)”.
On to `CC(C)(O)C(F)(F)Oc1ccc(-c2nccs2)c2oc(N3CC4CCC(C3)N4)nc12` [Example 405, 1-((2-(3,8-diazabicyclo [3.2.1]octan-3-yl)-7-(thiazol-2-yl)benzo[d]oxazol-4-yl)oxy)-1,1-difluoro-2-methylpropan-2-ol], for which the IC50 in the data set on PDE4 (setting [2]) was less than 100 nM. Besides, the “Residual ratio (% remaining for 30-minute reaction)” value in data set [1] was “B (60% or more and less than 75%)”.
Turning to `FC(F)(F)Oc1ccc(-c2nccs2)c2oc(N3CC4CC(C3)N4)nc12` [Example 29, 2-(3,6-Diazabicyclo[3.1.1]heptan-3-yl)-7-(thiazol-2-yl)-4-(trifluoromethoxy)benzo[d]oxazole], in the data set with PDE4 (setting [3]), the IC50 is less than 100 nM. The “Residual ratio (% remaining for 30-minute reaction)” value in data set [1] is “B (60% or more and less than 75%)”.
On to `Cc1cc(C(F)(F)F)c(Oc2ccc(-c3nccs3)c3oc(N4CC5CC(C4)N5)nc23)nn1` [Example 340, 2-(3,6-diazabicyclo[3.1.1]heptan-3-yl)-4-((6-methyl-4-(trifluoro-methyl)pyridazin-3-yl)oxy)-7-(thiazol-2-yl)benzo[d] oxazole], for which the IC50 in the data set on PDE4 (setting [2]) was less than 100 nM. The “Residual ratio (% remaining for 30-minute reaction)” value in data set [1] was “A (a % remaining rate of 75% or more)”.
Regarding `CC(O)C(F)(F)Oc1ccc(-c2nccs2)c2oc(N3CC4CC(C3)N4)nc12` (single isomer, unassigned) [Example 252, 1-((2-(3,6-Diazabicyclo[3.1.1]heptan-3-yl)-7-(thiazol-2-yl)benzo[d]oxazol-4-yl)oxy)-1,1-difluoropropan-2-ol], the IC50 in the data set on PDE4 (setting [3]) is less than 100 nM. Moreover, the “Residual ratio (% remaining for 30-minute reaction)” value in data set [1] was “A (a % remaining rate of 75% or more)”.
On to `OCC(F)(F)Oc1ccc(-c2nccs2)c2oc(N3CC4CC(C3)N4)nc12` [Example 249, 2-((2-(3,6-Diazabicyclo[3.1.1]heptan-3-yl)-7-(thiazol-2-yl)benzo[d]oxazol-4-yl)oxy)-2,2-difluoroethan-1-ol], for which the IC50 in the data set on PDE4 (setting [3]) is less than 100 nM. In addition, in data set [1], the “Residual ratio (% remaining for 30-minute reaction)” value was “B (60% or more and less than 75%)”.
